# Where “and” joins values, the source holds several entries; their conditions need not be identical. Identical values can stand only once.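 Method: 48-hour compound exposure of cells in 96-well plates, five concentrations, linear interpolation of endpoints. Here, GI50 denotes the concentration required for 50% inhibition of growth. TGI: total growth inhibition.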
# Experiments:
# Assay in all cases: NCI tumour cell line growth inhibition, 48 h
# SF-268 CNS = tested on: SF-268 CNS
# NCI-H226 lung = tested on: NCI-H226 lung
# LOX IMVI melanoma = tested on: LOX IMVI melanoma
# U251 CNS = tested on: U251 CNS
# SF-295 CNS = tested on: SF-295 CNS
# MALME-3M melanoma = tested on: MALME-3M melanoma
# KM12 colon = tested on: KM12 colon
# SNB-75 CNS = tested on: SNB-75 CNS
# UO-31 renal = tested on: UO-31 renal
# HCT-15 colon = tested on: HCT-15 colon
Structure (SMILES),TGI (SF-268 CNS) [µM],TGI (NCI-H226 lung) [µM],TGI (LOX IMVI melanoma) [µM],TGI (U251 CNS) [µM],TGI (SF-295 CNS) [µM],TGI (MALME-3M melanoma) [µM],TGI (KM12 colon) [µM],TGI (SNB-75 CNS),TGI (UO-31 renal) [µM],TGI (HCT-15 colon) [µM],GI50 (SF-268 CNS) [µM],GI50 (NCI-H226 lung) [µM],GI50 (LOX IMVI melanoma) [µM],GI50 (U251 CNS) [µM],GI50 (SF-295 CNS) [µM],GI50 (MALME-3M melanoma) [µM],GI50 (KM12 colon) [µM],GI50 (SNB-75 CNS) [µM],GI50 (UO-31 renal) [µM],GI50 (HCT-15 colon) [µM]
CN(C)c1ccc(C2CC(C)(O)Oc3cc4c(cc32)OCO4)cc1 (stereo not given),> 100,> 100,> 100,> 100,> 100,> 100,> 100,75.1 µM,93.1,> 100,–,–,–,–,–,–,–,–,–,–
OCC(O)C(O)C(O)C(O)c1nn[nH]n1 (stereo not given),> 100,> 100,> 100,> 100,> 100,> 100,> 100,88.1 µM and > 100 µM,> 100,> 100,–,–,–,–,–,–,–,–,–,–
COc1ccc(/C(C)=C(\c2ccc(Cl)cc2)c2ccc(OCCN3CCCCCC3)cc2)cc1F,> 16.7,> 16.7,4.82,7.59,5.61,4.72,7.04,13.3 µM,4.47,2.85,6.42,5.47,2.51,2.79,2.69,2.25,1.7,4.16,2.17,0.668
C#Cc1cccc(NC(=O)C2CCCN(C(=O)CCl)C2)c1 (stereo not given),> 82.5,> 82.5,28.7,> 82.5,> 82.5,78.6,> 82.5,> 82.5 µM,26.4,> 82.5,> 82.5,> 82.5,14.4,> 82.5,> 82.5,18.1,> 82.5,> 82.5,12.9,28.3
CCCCC[C@@H](C/C=C/CCC(=O)NC/C(=C/Cl)[C@H]1C(=O)C(C)(C)C(=O)[C@@H](C)[C@@]1(C)O)OC,34.6,36.1,38,37.1,26.4,35.5,32.7,44.7 µM,28.8,32,17.6,18,18.8,20.1,13.5,18.9,17.5,20.5,15.4,17.1
CCN1CCN(c2nc(NNC(=O)c3ccccc3)nc(N3CCN(C(c4ccccc4)c4ccccc4)CC3)n2)CC1,32.7,29.5,3.35,10.5,16.3,3.48,11.8,18.1 µM,3.25,5.84,11.6,11.9,1.82,3.05,4.58,1.7,3.42,3.96,1.52,2.3
CNCc1ccc(-c2[nH]c3cc(F)cc4c3c2CCNC4=O)cc1,66,43.4,29.2,57.7,45.7,36.1,45.3,27.3 µM,76.2,> 100,22.8,15.6,12.9,16,18.8,17,20,9.49,22.2,35.8
Nc1ncnc2c1nc(Cl)n2C1OC(CO)C(O)C1O (stereo not given),> 100,> 85.2,> 100,> 100,> 100,> 100,> 100,> 56.6 µM,> 100,> 100,–,–,–,–,–,–,–,–,–,–
COc1cc(/C=C2\C(=O)N(C)c3ccccc32)cc(OC)c1OC,> 100,52.4,26.7,41.7,> 100,> 100,30.1,70 µM,> 100,85.5,0.793,19.1,11.1,7.49,22.1,82.7,11.2,11.5,22.7,10.3
COc1c(O)c2c3c(c1OC)-c1ccccc1CC3N(S(=O)(=O)c1ccc(C)cc1)CC2 (stereo not given),> 50,> 50,> 50,> 50,30.6,> 50,> 50,3.92 µM,> 50,> 50,4.56,11.4,2.59,1.69,2.07,7.88,1.76,0.933,2.02,2.05
